# Data published in patent US12589143B2, “Human anti-PD-L1 peptide vaccines and methods of their use” (priority 2019, dated 2026).
# Where “and” joins values, the source holds several entries; their conditions need not be identical. Equal values may be shown once. Where no end group is shown, it is not given here.
# Test system: MVF-PD-L1 peptide immunogen
# Experiment: Immunogenicity in Balb/c mice, experiment 1 (CT26 WT): ELISA of sera vs each MVF-PD-L1 peptide immunogen
# Assay type: in vivo
# Details: for Immunogenicity (titers) 1′ Conc. 1:: Balb/c mice
# Description: Immunogenicity of MVF-PD-L1 B-cell epitopes. New Zealand White rabbits were immunized with 1 mg of each MVF-peptide immunogens dissolved in dd H2O emulsified (1:1) in Montanide ISA 720 vehicle (Seppic) with 333 μg of N-acetylglucosamine-3yl-acetyl-1-alanyl-d-isoglutamine (nor-MDP). Rabbits were boosted with the same doses at 3-week's intervals. Blood was collected via the central auricular artery in rabbits. Blood was collected weekly (1Y+3, 2Y+1, 2Y+2,2Y+3, 3Y+1, 3Y+2 and sera tested for antibody titers by ELISA using the immunogens MVF-PD-L1 peptides. Sera (terminal) from rabbit (3Y+3) immunized with MVF-PD-1 peptide immunogens were tested individually versus the immunogen by ELISA. 200 ng/well peptide were used in duplicates to coat the ELISA plates. Titers are defined as the highest dilution of sera with an absorbance value of 0.2 after subtracting the blank.
# FIGS. 5A, 5B, 5C, and 5D show the experimental scheme to test the immunization with PD-L1 in Balb/c mice. […] Balb/c mice 6-8 weeks old, were immunized with MVF-peptide immunogens emulsified in ISA 720 with nor-MDP three times and three weeks apart. Mice were immunized with MVF-PD-L1 vaccine constructs [PD-L1(36-53), PD-L1(50-67), PD-L1(95-112), PD-L1(130-147)] prior to tumor challenge. Blood was collected weekly and sera tested for antibody titers by ELISA. Two weeks after the third immunization (3Y), the mice were engrafted with CT26 WT tumor cells 10^5 per mouse Control mice were treated twice weekly with PBS as negative control and twice weekly with anti-mPD-L1 mAb (10F.9G2) as positive control starting 2 days after tumor challenge. Tumor growths were observed twice weekly and measured by calipers.
# Immunogenicity of MVF-PD-L1 peptides in BALB/c mice immunized with various peptide constructs. Sera collected weekly were tittered against each individual MVF-PD-L1 peptide immunogen. The Pink bar refers to titers versus PD-L1 130 and the red bar refers to titers versus PD-1 (92-110).
# In order to verify the efficacy of the PD-L1 epitope vaccines in vivo in the CT26 carcinoma cell line, Balb/c mice (10 mice/group) were immunized with 100 μg each of MVF-PD-L1 (36-53), MVF-PD-L1 (50-67), MVF-PD-L1 (95-112) and MVF-PD-L1 (130-147) emulsified with nor-MDP and Montanide 720 (1:1 ratio) SCHEME 1A (FIG. 5A). As detailed in SCHEME 1A-D (FIGS. 5A, 5B, 5C, and 5D), mice were immunized 3 times at 3 weeks intervals. […] All PD-L1 epitopes elicited high titers of PD-L1 anti-peptide antibodies by ELISA. […] We also investigated the combination of PD-1(92-110) with PD-L1-130-147.
# For each peptide, vaccine antibodies were raised in New Zealand white rabbits, purchased from Charles River Laboratories (Wilmington, MA, USA). Rabbits were immunized with 1 mg of MVF chimeric peptide emulsified in Montanide ISA 720 (Seppic, Paris, France) and boosted 3 times at three week intervals. For mouse experiments, mice, 6-8 weeks old, were immunized with 0.1 mg of peptide emulsified in ISA720 (1:1 ratio). Mice were boosted with the respective doses at 3-week intervals. Blood was then collected and sera were tested for antibody titers. Sera were collected weekly and peptide vaccine antibodies were purified by affinity chromatography using a protein A/G column and the concentration was measured using Spectrophometer. All experiments were performed in accordance with the U.S. Public Health Service Policy on Humane Care and Use of Laboratory animals and approved by the Ohio State University Institutional Animals Care and Use Committee, detailed in the accepted protocol.
# 6-8 weeks old BALB/c mice (Charles River, Wilmington, MA) were used as standard animal models. Mouse CT26 colon carcinoma cell line was purchased from American Type Culture Collection Cells and were regularly cultured in RPMI1640 medium containing 10% FBS. CT26/HER2 cells were kindly provided by M. Penichet. Vaccines were dissolved in sterile water and emulsified in Montanide ISA 720 (1:1). […]
sequence,measurement,setting,value
KLLSLIKGVIVHRLEGVEGPSLFVHGEEDLKVQHSSYRQR (KLLSLIKGVIVHRLEGVEGPSLFVHGEEDLKVQHSSYRQR-NH2) [PD-L1(50)],Immunogenicity (titers) 1′ Conc. 1:,bleed 1Y + 3,6400
same,Immunogenicity (titers) 1′ Conc. 1:,bleed 2Y + 1,12800
same,Immunogenicity (titers) 1′ Conc. 1:,bleed 2Y + 2,12800
same,Immunogenicity (titers) 1′ Conc. 1:,bleed 2Y + 3,12800
same,Immunogenicity (titers) 1′ Conc. 1:,bleed 3Y + 1,128000
same,Immunogenicity (titers) 1′ Conc. 1:,bleed 3Y + 2,128000
same,Immunogenicity (titers) 1′ Conc. 1:,bleed 3Y + 3,128000
same,ELISA absorbance of sera,"bleed 1Y + 3 (1to100), dilution 100, bleed 1Y + 3",1.459 and 1.424
same,ELISA absorbance of sera,"bleed 1Y + 3 (1to100), dilution 200, bleed 1Y + 3",1.338 and 1.282
same,ELISA absorbance of sera,"bleed 1Y + 3 (1to100), dilution 400, bleed 1Y + 3",1.131 and 1.099
same,ELISA absorbance of sera,"bleed 1Y + 3 (1to100), dilution 800, bleed 1Y + 3",0.878 and 0.852
same,ELISA absorbance of sera,"bleed 1Y + 3 (1to100), dilution 1,600, bleed 1Y + 3",0.639 and 0.588
same,ELISA absorbance of sera,"bleed 1Y + 3 (1to100), dilution 3,200, bleed 1Y + 3",0.398 and 0.365
same,ELISA absorbance of sera,"bleed 1Y + 3 (1to100), dilution 6,400, bleed 1Y + 3",0.239 and 0.213
same,ELISA absorbance of sera,"bleed 1Y + 3 (1to100), dilution 12,800, bleed 1Y + 3",0.143 and 0.129
same,ELISA absorbance of sera,"bleed 2Y + 1 (1to100), dilution 100, bleed 2Y + 1",1.243 and 1.292
same,ELISA absorbance of sera,"bleed 2Y + 1 (1to100), dilution 200, bleed 2Y + 1",1.279 and 1.274
same,ELISA absorbance of sera,"bleed 2Y + 1 (1to100), dilution 400, bleed 2Y + 1",1.241 and 1.170
same,ELISA absorbance of sera,"bleed 2Y + 1 (1to100), dilution 800, bleed 2Y + 1",1.127 and 1.002
same,ELISA absorbance of sera,"bleed 2Y + 1 (1to100), dilution 1,600, bleed 2Y + 1",0.923 and 0.887
same,ELISA absorbance of sera,"bleed 2Y + 1 (1to100), dilution 3,200, bleed 2Y + 1",0.721 and 0.666
same,ELISA absorbance of sera,"bleed 2Y + 1 (1to100), dilution 6,400, bleed 2Y + 1",0.480 and 0.471
same,ELISA absorbance of sera,"bleed 2Y + 1 (1to100), dilution 12,800, bleed 2Y + 1",0.332 and 0.274
same,ELISA absorbance of sera,"bleed 2Y + 2 (1to100), dilution 100",1.298 and 1.343
same,ELISA absorbance of sera,"bleed 2Y + 2 (1to100), dilution 200",1.310 and 1.286
same,ELISA absorbance of sera,"bleed 2Y + 2 (1to100), dilution 400",1.241 and 1.190
same,ELISA absorbance of sera,"bleed 2Y + 2 (1to100), dilution 800",1.144 and 1.093
same,ELISA absorbance of sera,"bleed 2Y + 2 (1to100), dilution 1,600",0.964 and 0.893
same,ELISA absorbance of sera,"bleed 2Y + 2 (1to100), dilution 3,200",0.741 and 0.670
same,ELISA absorbance of sera,"bleed 2Y + 2 (1to100), dilution 6,400",0.519 and 0.487
same,ELISA absorbance of sera,"bleed 2Y + 3 (1to1k), dilution 100",1.054 and 1.076
same,ELISA absorbance of sera,"bleed 2Y + 3 (1to1k), dilution 200",1.008 and 1.012
same,ELISA absorbance of sera,"bleed 2Y + 3 (1to1k), dilution 400",0.952 and 0.915
same,ELISA absorbance of sera,"bleed 2Y + 3 (1to1k), dilution 800",0.827 and 0.819
same,ELISA absorbance of sera,"bleed 2Y + 3 (1to1k), dilution 1,600",0.708 and 0.703
same,ELISA absorbance of sera,"bleed 2Y + 3 (1to1k), dilution 3,200",0.534 and 0.514
same,ELISA absorbance of sera,"bleed 2Y + 3 (1to1k), dilution 6,400",0.351 and 0.332
same,ELISA absorbance of sera,"bleed 3Y + 1 (1to1k), dilution 100, bleed 3Y + 1",1.191 and 1.215
same,ELISA absorbance of sera,"bleed 3Y + 1 (1to1k), dilution 200, bleed 3Y + 1",1.138 and 1.143
same,ELISA absorbance of sera,"bleed 3Y + 1 (1to1k), dilution 400, bleed 3Y + 1",1.076 and 1.034
same,ELISA absorbance of sera,"bleed 3Y + 1 (1to1k), dilution 800, bleed 3Y + 1",0.935 and 0.925
same,ELISA absorbance of sera,"bleed 3Y + 1 (1to1k), dilution 1,600, bleed 3Y + 1",0.800 and 0.794
same,ELISA absorbance of sera,"bleed 3Y + 1 (1to1k), dilution 3,200, bleed 3Y + 1",0.603 and 0.581
same,ELISA absorbance of sera,"bleed 3Y + 1 (1to1k), dilution 6,400, bleed 3Y + 1",0.397 and 0.375
same,ELISA absorbance of sera,"bleed 3Y + 2 (1to1k), dilution 100, bleed 3Y + 2",1.608 and 1.586
same,ELISA absorbance of sera,"bleed 3Y + 2 (1to1k), dilution 200, bleed 3Y + 2",1.503 and 1.479
same,ELISA absorbance of sera,"bleed 3Y + 2 (1to1k), dilution 400, bleed 3Y + 2",1.384 and 1.401
same,ELISA absorbance of sera,"bleed 3Y + 2 (1to1k), dilution 800, bleed 3Y + 2",1.185 and 1.213
same,ELISA absorbance of sera,"bleed 3Y + 2 (1to1k), dilution 1,600, bleed 3Y + 2",0.961 and 0.959
same,ELISA absorbance of sera,"bleed 3Y + 2 (1to1k), dilution 3,200, bleed 3Y + 2",0.684 and 0.694
same,ELISA absorbance of sera,"bleed 3Y + 2 (1to1k), dilution 6,400, bleed 3Y + 2",0.462
same,ELISA absorbance of sera,"bleed 3Y + 3 (1to1k), dilution 100, bleed 3Y + 3",1.740 and 1.779
same,ELISA absorbance of sera,"bleed 3Y + 3 (1to1k), dilution 200, bleed 3Y + 3",1.596 and 1.638
same,ELISA absorbance of sera,"bleed 3Y + 3 (1to1k), dilution 400, bleed 3Y + 3",1.445 and 1.469
same,ELISA absorbance of sera,"bleed 3Y + 3 (1to1k), dilution 800, bleed 3Y + 3",1.181 and 1.217
same,ELISA absorbance of sera,"bleed 3Y + 3 (1to1k), dilution 1,600, bleed 3Y + 3",0.867 and 0.967
same,ELISA absorbance of sera,"bleed 3Y + 3 (1to1k), dilution 3,200, bleed 3Y + 3",0.621 and 0.629
same,ELISA absorbance of sera,"bleed 3Y + 3 (1to1k), dilution 6,400, bleed 3Y + 3",0.359
